Laboratory results as given in PubChem BioAssay (NCI).
“And” between values parts separate entries of the source, which are not always exact repeats. Identical values can stand only once.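 1) Cells in 96-well plates. 2) Compound, 48 h, 5 concentrations. 3) Linear interpolation between surrounding doses. 4) Unreached endpoint = highest concentration. GI50 = concentration required for 50% inhibition of growth. At the TGI there is no net growth.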

Columns and labels:
Test in all cases: NCI tumour cell line growth inhibition, 48 h
OVCAR-4 ovarian = tested on: OVCAR-4 ovarian
OVCAR-5 ovarian = tested on: OVCAR-5 ovarian
MCF7 breast = tested on: MCF7 breast
HCT-15 colon = tested on: HCT-15 colon
SK-OV-3 ovarian = tested on: SK-OV-3 ovarian
SF-268 CNS = tested on: SF-268 CNS
OVCAR-8 ovarian = tested on: OVCAR-8 ovarian
ACHN renal = tested on: ACHN renal
NCI-H460 lung = tested on: NCI-H460 lung
PC-3 prostate = tested on: PC-3 prostate

Structure (SMILES) | GI50 (OVCAR-4 ovarian) [µM] | TGI (OVCAR-4 ovarian) | GI50 (OVCAR-5 ovarian) [µM] | TGI (OVCAR-5 ovarian) | GI50 (MCF7 breast) [µM] | TGI (MCF7 breast) | GI50 (HCT-15 colon) [µM] | TGI (HCT-15 colon) | GI50 (SK-OV-3 ovarian) [µM] | TGI (SK-OV-3 ovarian) | GI50 (SF-268 CNS) [µM] | TGI (SF-268 CNS) | GI50 (OVCAR-8 ovarian) [µM] | TGI (OVCAR-8 ovarian) | GI50 (ACHN renal) [µM] | TGI (ACHN renal) | GI50 (NCI-H460 lung) [µM] | TGI (NCI-H460 lung) | GI50 (PC-3 prostate) [µM] | TGI (PC-3 prostate)
CCN1CCN(C(=O)[C@]23CC[C@@H](C)[C@H](C)[C@@H]2C2=CC[C@@H]4[C@@]5(C)C/C(=C/c6ccncc6)C(=O)C(C)(C)[C@@H]5CC[C@@]4(C)[C@]2(C)CC3)CC1 | 1.65 | 3.18 µM | 1.46 | 2.77 µM | 1.57 | 3.2 µM | 1.65 | 3.35 µM | 1.83 | 3.67 µM | 1.64 | 3.13 µM | 2.26 | 5.75 µM | 1.73 | 3.1 µM | 1.7 | 3.25 µM | 1.34 | 3.01 µM
COc1cc2c(cc1OCCCOc1cc3c(cc1OC)C(=O)N1C[C@H](F)C[C@H]1C=N3)N=C[C@@H]1C[C@@H](F)CN1C2=O | 16.2 | 31.7 µM | 13.2 | 25.9 µM | 3.09 | 18.1 µM | 10.3 | 23.6 µM | 17.9 | 32.9 µM | 2.26 | 6.01 µM | 6.3 | 18.5 µM | 10.5 | 31.8 µM | 6.15 | 20.1 µM | 12.6 | 37.3 µM
CCOC(=O)Nc1nc2ccc(Cn3cccc3)cc2[nH]1 |  | > 100 µM |  | > 100 µM |  | > 100 µM |  | > 100 µM |  | > 100 µM |  | > 100 µM |  | > 100 µM |  | > 100 µM |  | > 100 µM |  | > 38.2 µM
CCN(CC)CC(O)CNc1ccc(NCC2CO2)c2c1C(=O)c1ccccc1C2=O (stereo not drawn) |  | 3.3 µM |  | 7.76 µM | 0.0284 | 0.169 µM | 0.417 | 6.35 µM |  | 9.64 µM |  | 0.683 µM |  | 1.32 µM | 0.0514 | 0.448 µM and 0.751 µM | 0.39 | 3.16 µM | 0.395 | 3.06 µM
NOCC(=O)O | > 100 | > 100 µM | > 100 | > 100 µM | > 100 | > 100 µM | > 100 | > 100 µM | > 100 | > 100 µM | > 100 | > 100 µM | > 100 | > 100 µM | > 100 | > 100 µM | > 100 | > 100 µM | > 100 | > 100 µM
COc1ccc(CN(C)c2ccc(CO)c(Cl)c2)cc1 | 1.93 | > 45.9 µM | 0.439 | 2.9 µM | 0.892 | > 64.9 µM | 21 | > 100 µM | 18.8 | 88.8 µM | 33.4 | > 100 µM | 19.6 | > 100 µM | 32.6 | > 100 µM | 1.04 | 15 µM | 20.7 | > 100 µM
O=C1c2ccccc2C(=O)N1CCCSc1ccccc1 |  | > 100 µM |  | > 100 µM |  | > 100 µM |  | > 100 µM |  | > 100 µM |  | > 100 µM |  | > 100 µM |  | > 100 µM |  | > 100 µM |  | > 100 µM
COc1cc(C(=O)/C(C)=C/c2c[nH]c3ccccc23)cc(OC)c1OC | 0.0249 | > 100 µM | 0.0842 | > 100 µM | 0.00357 | > 100 µM | 0.0034 | > 100 µM | 0.00768 | 76.8 µM | 0.00544 | 10.6 µM | 0.00358 | 82.4 µM | 0.00619 | > 100 µM | 0.00369 | > 100 µM | 0.00789 | > 100 µM
CC(=O)CC(=O)Nc1ccc2ccccc2c1 |  | > 100 µM |  | > 100 µM |  | > 100 µM |  | > 100 µM |  | > 100 µM |  | > 100 µM |  | > 100 µM |  | > 100 µM |  | > 100 µM |  | > 100 µM
ClCc1cccc(Cn2cnc3c(NC45CC6CC(CC(C6)C4)C5)ncnc32)c1 | 15.5 | 38.8 µM | 19.2 | 36.4 µM | 9.1 | 45.5 µM | 20.4 | 47.5 µM | 21.1 | 42.3 µM | 12 | 40.5 µM | 17.8 | 50.8 µM | 15.4 | 30.5 µM | 16 | 43 µM | 19 | 40.2 µM
COc1ccc([N+](=O)[O-])c2c(NCCCN(C)C)c3ccccc3nc12 |  | 0.206 µM |  | 0.984 µM |  | 0.203 µM |  | 1.39 µM |  | 2.38 µM |  | 3.44 µM |  | 4.9 µM |  | 0.389 µM |  | 0.257 µM |  | 0.372 µM
COc1cc(OC)cc(C2CC(=O)Nc3c2c(C)nn3-c2nc3ccccc3[nH]2)c1 (stereo not drawn) | 4.64 | > 100 µM | 4.15 | > 100 µM | 2.94 | > 100 µM | 3.73 | > 100 µM | 2.41 | 5.49 µM | 3.57 | > 100 µM | 3.97 | > 100 µM | 3.94 | 42.4 µM | 2.58 | 6.1 µM | 3.09 | 41.7 µM
CC(=O)c1c(C)[nH]c(-c2nc3ccc(N4CCN(C)CC4)cc3[nH]2)c1-c1ccc(OCC2CCOCC2)cc1 | 0.803 | 32.9 µM | 1.62 | 32.2 µM | 0.218 | 11.6 µM | 0.456 | 5.8 µM | 0.377 | 11.1 µM | 3.52 | 20.1 µM | 1.5 | 27.9 µM | 0.777 | 12.4 µM | 2.39 | 19.4 µM | 0.693 | 19.3 µM
O=c1ccn(C2OC(CO)C(O)C2F)c(=O)[nH]1 (stereo not drawn) | 26 | 840 µM and > 100 µM | > 1000 | > 1000 µM | > 1000 | > 1000 µM | > 1000 | > 1000 µM | > 1000 | > 1000 µM | > 1000 | > 1000 µM | > 1000 | > 1000 µM | > 1000 | > 1000 µM | > 1000 | > 1000 µM | > 1000 | > 1000 µM
CC(=O)Nc1ccc(C(=O)NN2C(=O)C(Cl)C2c2ccc(Cl)cc2)cc1 (stereo not drawn) |  | > 100 µM |  | > 100 µM |  | > 100 µM |  | > 100 µM |  | 71.9 µM |  | > 86.3 µM |  | > 100 µM |  | > 100 µM |  | > 100 µM |  | > 100 µM
O=C1c2ccccc2-c2c1c1ccccc1c(=O)n2CCCNCCCn1ccnc1 | 6.34 | 28.1 µM | 1.55 | 4.93 µM | 0.772 | 12.7 µM | 0.44 | 10.1 µM | 3.16 | 17.7 µM | 3.12 | 23.2 µM | 2.44 | > 37.3 µM | 0.252 | 0.879 µM | 1.27 | 43.1 µM | 1.58 | 9.75 µM
CN[C@@H](C)C(=O)N[C@H](C(=O)N1CCC[C@H]1C(=O)N[C@H]1c2ccccc2C[C@H]1OCC#CC#CCO[C@@H]1Cc2ccccc2[C@@H]1NC(=O)[C@@H]1CCCN1C(=O)[C@@H](NC(=O)[C@H](C)NC)C1CCCCC1)C1CCCCC1 | < 0.01 | 10.9 µM | 18.1 | 34.6 µM | 1.47 | 3.23 µM | 17.5 | 40 µM | < 0.01 | < 0.01 µM | 5.58 | 13.5 µM | 0.452 | 8.31 µM | 14.4 | 28.5 µM | 2.66 | 6.77 µM | 6.04 | 18.7 µM
CCN(CC)CCCC(C)Nc1c2ccc(Cl)cc2nc2ccc(OC)cc12 (stereo not drawn) |  | 5.05 µM and 3.74 µM | 2.34 | 6.45 µM and 4.75 µM | 2.33 | 8.04 µM and 10.7 µM | 1.61 | 7.18 µM and 5.67 µM | 2.69 | 10.3 µM and 12.6 µM |  | 5.03 µM and 7.68 µM | 1.23 | 5.64 µM and 5.73 µM | 1.42 | 5.15 µM and 9.77 µM | 1.3 | 3.21 µM and 2.4 µM | 2.24 | 9.19 µM and 5.73 µM
O=C1Nc2ccc(C(=O)c3ccco3)cc2/C1=C/c1cc(Cl)c(O)c(Cl)c1 | 6.95 | > 25 µM | 8.35 | > 20 µM | 6.1 | > 25 µM | 4.16 | > 25 µM | 4.51 | 16.1 µM | 5.94 | > 25 µM | 6.27 | > 25 µM | 2.14 | 11.1 µM | 4.23 | > 22.8 µM | 6.52 | > 24.1 µM
COc1cc(Nc2nccc(Nc3ccc4c(C)[nH]nc4c3)n2)cc(OC)c1OC | 4.04 | > 20.7 µM | 1.8 | 20.8 µM | 1.62 | 16.9 µM | 2.84 | > 25 µM | 1.53 | 6.64 µM | 2.42 | 7.89 µM | 3.39 | 10.2 µM | 1.9 | > 25 µM | 1.29 | 5.3 µM | 2.33 | > 20.5 µM
